# Results published in publication PMC11682962, “The histamine analogue clobenpropit modulates IRF7 phosphorylation and interferon production by targeting CXCR4 in systemic lupus erythematosus models” (Frontiers in Immunology, 2024).
# Target: T1, CXCR4 (Homo sapiens, UniProt P61073)
# T1 construct: Nanoluc-CXCR4
# Assay: NanoBRET competition binding against CXCL12-AF647 in transfected HEK293T cells; anti-IFN effect lost with CXCR4 siRNA
# Type: cell-based
# T1 sequence (P61073 whole entry): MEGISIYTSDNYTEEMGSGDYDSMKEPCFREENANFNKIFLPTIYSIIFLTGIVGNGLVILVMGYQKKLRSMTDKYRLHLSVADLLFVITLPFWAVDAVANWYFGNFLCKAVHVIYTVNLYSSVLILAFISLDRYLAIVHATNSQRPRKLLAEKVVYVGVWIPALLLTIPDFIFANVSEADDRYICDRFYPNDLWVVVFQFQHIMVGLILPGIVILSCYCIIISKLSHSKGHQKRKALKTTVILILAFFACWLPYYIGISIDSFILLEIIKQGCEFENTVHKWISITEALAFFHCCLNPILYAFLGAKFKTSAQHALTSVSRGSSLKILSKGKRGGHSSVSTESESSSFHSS
smiles,measurement,value
"NC(=NCc1ccc(Cl)cc1)SCCCc1cnc[nH]1 [CB, clobenpropit]",Ki,18.6 µM
